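Growth conditions: 96-well plates. Treatment: test compound, 48 hours, 5 concentrations. Analysis: linear interpolation between bracketing concentrations; unreached endpoints set to highest concentration. At the GI50, growth is halved. TGI denotes the concentration required for complete inhibition of growth.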
Columns and labels:
Experiment in all cases: DTP human tumour cell line panel, 48 h
NCI-H23 lung = tested on: NCI-H23 lung
UACC-62 melanoma = tested on: UACC-62 melanoma
HOP-92 NSCLC = tested on: HOP-92 NSCLC
UACC-257 melanoma = tested on: UACC-257 melanoma
A549 NSCLC = tested on: A549 NSCLC
HL-60(TB) leukemia = tested on: HL-60(TB) leukemia
UO-31 renal = tested on: UO-31 renal
NCI/ADR-RES ovarian = tested on: NCI/ADR-RES ovarian
COLO 205 colon = tested on: COLO 205 colon
ACHN renal = tested on: ACHN renal
SF-539 CNS = tested on: SF-539 CNS
KM12 colon = tested on: KM12 colon
SK-OV-3 ovarian = tested on: SK-OV-3 ovarian
HCC-2998 colon = tested on: HCC-2998 colon
MALME-3M melanoma = tested on: MALME-3M melanoma
SF-295 CNS = tested on: SF-295 CNS
PC-3 prostate = tested on: PC-3 prostate
EKVX NSCLC = tested on: EKVX NSCLC
BT-549 breast = tested on: BT-549 breast
IGROV1 ovarian = tested on: IGROV1 ovarian
RXF 393 renal = tested on: RXF 393 renal
HOP-62 NSCLC = tested on: HOP-62 NSCLC
NCI-H522 lung = tested on: NCI-H522 lung
TK-10 renal = tested on: TK-10 renal
LOX IMVI melanoma = tested on: LOX IMVI melanoma
HT29 colon = tested on: HT29 colon
HS 578T breast = tested on: HS 578T breast
CAKI-1 renal = tested on: CAKI-1 renal
OVCAR-5 ovarian = tested on: OVCAR-5 ovarian
OVCAR-3 ovarian = tested on: OVCAR-3 ovarian
K-562 leukemia = tested on: K-562 leukemia
SNB-75 CNS = tested on: SNB-75 CNS
SN12C renal = tested on: SN12C renal
MDA-MB-435 = tested on: MDA-MB-435
SK-MEL-2 melanoma = tested on: SK-MEL-2 melanoma
U251 CNS = tested on: U251 CNS
NCI-H226 lung = tested on: NCI-H226 lung
786-0 renal = tested on: 786-0 renal
HCT-116 colon = tested on: HCT-116 colon
OVCAR-4 ovarian = tested on: OVCAR-4 ovarian
MOLT-4 leukemia = tested on: MOLT-4 leukemia
SF-268 CNS = tested on: SF-268 CNS
OVCAR-8 ovarian = tested on: OVCAR-8 ovarian
DU-145 prostate = tested on: DU-145 prostate
T-47D breast = tested on: T-47D breast
NCI-H460 lung = tested on: NCI-H460 lung
M14 melanoma = tested on: M14 melanoma
MDA-MB-231 breast = tested on: MDA-MB-231 breast
A498 renal = tested on: A498 renal
SW-620 colon = tested on: SW-620 colon
MCF7 breast = tested on: MCF7 breast
SK-MEL-28 melanoma = tested on: SK-MEL-28 melanoma
CCRF-CEM leukemia = tested on: CCRF-CEM leukemia
RPMI-8226 leukemia = tested on: RPMI-8226 leukemia
HCT-15 colon = tested on: HCT-15 colon
SK-MEL-5 melanoma = tested on: SK-MEL-5 melanoma
SNB-19 CNS = tested on: SNB-19 CNS
SR leukemia = tested on: SR leukemia

What does the source list for `Cc1nc2sc(C(=O)Nc3cccc(Br)c3C)c(N)c2cc1C(O)c1ccccc1` (stereo unspecified)?
GI50 (NCI-H23 lung): 61.6 nM; TGI (NCI-H23 lung): 15000 nM; GI50 (UACC-62 melanoma): 56.6 nM; TGI (UACC-62 melanoma): 9590 nM; GI50 (HOP-92 NSCLC): 1330 nM; TGI (HOP-92 NSCLC): 16500 nM; GI50 (UACC-257 melanoma): 1460 nM; TGI (UACC-257 melanoma): 27000 nM; GI50 (A549 NSCLC): 46.6 nM; TGI (A549 NSCLC): > 100000 nM; GI50 (HL-60(TB) leukemia): 30 nM; TGI (HL-60(TB) leukemia): 87.6 nM; GI50 (UO-31 renal): 64.3 nM; TGI (UO-31 renal): 12500 nM; GI50 (NCI/ADR-RES ovarian): 32 nM; TGI (NCI/ADR-RES ovarian): 12800 nM; GI50 (COLO 205 colon): 46.4 nM; TGI (COLO 205 colon): 1070 nM; GI50 (ACHN renal): 74.3 nM; TGI (ACHN renal): 14300 nM; GI50 (SF-539 CNS): 25.6 nM; TGI (SF-539 CNS): 73.3 nM; GI50 (KM12 colon): 37.3 nM; TGI (KM12 colon): 4760 nM; GI50 (SK-OV-3 ovarian): 60.9 nM; TGI (SK-OV-3 ovarian): 75800 nM; GI50 (HCC-2998 colon): 35.1 nM; TGI (HCC-2998 colon): 2120 nM; GI50 (MALME-3M melanoma): 100 nM; TGI (MALME-3M melanoma): 20500 nM; GI50 (SF-295 CNS): 33.5 nM; TGI (SF-295 CNS): 6640 nM; GI50 (PC-3 prostate): 46.2 nM; TGI (PC-3 prostate): 37700 nM; GI50 (EKVX NSCLC): 283 nM; TGI (EKVX NSCLC): 43800 nM; GI50 (BT-549 breast): 44 nM; TGI (BT-549 breast): 2930 nM; GI50 (IGROV1 ovarian): 48.7 nM; TGI (IGROV1 ovarian): 13200 nM; GI50 (RXF 393 renal): 29.4 nM; TGI (RXF 393 renal): 26000 nM; GI50 (HOP-62 NSCLC): 54.9 nM; TGI (HOP-62 NSCLC): 18500 nM; GI50 (NCI-H522 lung): 28.6 nM; TGI (NCI-H522 lung): 2550 nM; GI50 (TK-10 renal): 1490 nM; TGI (TK-10 renal): > 63000 nM; GI50 (LOX IMVI melanoma): 49.6 nM; TGI (LOX IMVI melanoma): 6930 nM; GI50 (HT29 colon): 37.4 nM; TGI (HT29 colon): 12700 nM; GI50 (HS 578T breast): 34.5 nM; TGI (HS 578T breast): 6040 nM; GI50 (CAKI-1 renal): 60.1 nM; TGI (CAKI-1 renal): 6630 nM; GI50 (OVCAR-5 ovarian): 61 nM; TGI (OVCAR-5 ovarian): > 60200 nM; GI50 (OVCAR-3 ovarian): 32 nM; TGI (OVCAR-3 ovarian): 1020 nM; GI50 (K-562 leukemia): 35.4 nM; TGI (K-562 leukemia): > 100000 nM; GI50 (SNB-75 CNS): 27.9 nM; TGI (SNB-75 CNS): 13400 nM; GI50 (SN12C renal): 58.1 nM; TGI (SN12C renal): 6040 nM; GI50 (MDA-MB-435): 19.8 nM; TGI (MDA-MB-435): 55.2 nM; GI50 (SK-MEL-2 melanoma): 249 nM; TGI (SK-MEL-2 melanoma): 15700 nM; GI50 (U251 CNS): 43.8 nM; TGI (U251 CNS): 14600 nM; GI50 (NCI-H226 lung): 546 nM; TGI (NCI-H226 lung): 22400 nM; GI50 (786-0 renal): 60.1 nM; TGI (786-0 renal): 10100 nM; GI50 (HCT-116 colon): 37.1 nM; TGI (HCT-116 colon): 11800 nM; GI50 (OVCAR-4 ovarian): 147 nM; TGI (OVCAR-4 ovarian): > 70500 nM; GI50 (MOLT-4 leukemia): 55.6 nM; TGI (MOLT-4 leukemia): > 100000 nM; GI50 (SF-268 CNS): 146 nM; TGI (SF-268 CNS): 13000 nM; GI50 (OVCAR-8 ovarian): 48.7 nM; TGI (OVCAR-8 ovarian): > 100000 nM; GI50 (DU-145 prostate): 42.2 nM; TGI (DU-145 prostate): 5160 nM; GI50 (T-47D breast): 55.4 nM; TGI (T-47D breast): 67700 nM; GI50 (NCI-H460 lung): 34.2 nM; TGI (NCI-H460 lung): 156 nM; GI50 (M14 melanoma): 30.6 nM; TGI (M14 melanoma): 14700 nM; GI50 (MDA-MB-231 breast): 47.3 nM; TGI (MDA-MB-231 breast): 5660 nM; GI50 (A498 renal): 18.1 nM; TGI (A498 renal): 58 nM; GI50 (SW-620 colon): 38.2 nM; TGI (SW-620 colon): 19300 nM; GI50 (MCF7 breast): 37.3 nM; TGI (MCF7 breast): 13100 nM; GI50 (SK-MEL-28 melanoma): 1510 nM; TGI (SK-MEL-28 melanoma): 22000 nM; GI50 (CCRF-CEM leukemia): 40.6 nM; TGI (CCRF-CEM leukemia): > 100000 nM; GI50 (RPMI-8226 leukemia): 45.5 nM; TGI (RPMI-8226 leukemia): 7080 nM; GI50 (HCT-15 colon): 34.8 nM; TGI (HCT-15 colon): 11500 nM; GI50 (SK-MEL-5 melanoma): 46.8 nM; TGI (SK-MEL-5 melanoma): 263 nM; GI50 (SNB-19 CNS): 59.8 nM; TGI (SNB-19 CNS): > 100000 nM; GI50 (SR leukemia): 37.4 nM; TGI (SR leukemia): > 100000 nM
